Laboratory results from patent publication US8980912B2, “Cyclic amine compound and acaricide” (Nippon Soda Co., Ltd., priority 2010, dated 2015).

Test system: Tetranychus urticae
Experiment: Efficacy test against Tetranychus urticae (adult mites on kidney bean plant, spray)
Type: in vivo
Details: emulsion diluted to 31 ppm, sprayed; organic phosphorous-resistant adult females; 3 days after spraying
Method: Efficacy Test Against Tetranychus urticae
Seventeen organic phosphorous-resistant adult female Tetranychus urticae mites were inoculated onto the first leaves of a kidney bean plant planted in a No. 3 pot 7 to 10 days after germination. Next, an emulsion was prepared having the formula indicated in the aforementioned Preparation example 2. […] The kidney bean plant was then placed in a temperature-controlled room at a temperature of 25° C. and humidity of 65%. The adult insect mortality rates were investigated 3 days after spraying. The test was repeated twice.

Q: How did the insect mortality rate turn out when `COC(C)COc1cc(C(F)(F)F)ccc1OC1CC2CCCC(C1)N2Oc1ccc(C(F)(F)F)cn1` (stereo not shown) [H-81] was run?
A: ≥ 80%
